The test system of this assay is T1, tannase (tannin acyl hydrolase, TAH) from Aspergillus niger GH1.
T1 construct: native intracellular enzyme from submerged culture with tannic acid
Description: HPLC of released gallic acid; Lineweaver-Burk. To be noted: free, partially purified enzyme; 50 mM citrate pH 5.5, 30 °C; read-out: Free tannase / K M. Format: biochemical. The text has this: HPLC of released gallic acid; Lineweaver-Burk on tannase (tannin acyl hydrolase, TAH) from Aspergillus niger GH1

For 1 compound, Km results are on record in paper PMC3171769, “Catalytical Properties of Free and Immobilized Aspergillus niger Tannase” (Enzyme Research, 2011).

As to `COC(=O)c1cc(O)c(O)c(O)c1` [methyl gallate], the Km is 0.433 mM.
